Experimental findings from paper PMC8144350, “Block of TREK and TRESK K2P channels by lamotrigine and two derivatives sipatrigine and CEN-092” (Biochemistry and Biophysics Reports, 2021) are described below.

What all share (experiment): whole-cell patch-clamp, tsA201 cells
Common to all, as to assay type: cell-based
(Patch clamp records ionic current or voltage across a cell membrane.)

In experiment [1] the target is T1, TREK-1 (Homo sapiens, UniProt O95069).
T1 construct: gene KCNK2; wild-type human TREK-1 (NP_055032.1)
T1 sequence (O95069 1-426): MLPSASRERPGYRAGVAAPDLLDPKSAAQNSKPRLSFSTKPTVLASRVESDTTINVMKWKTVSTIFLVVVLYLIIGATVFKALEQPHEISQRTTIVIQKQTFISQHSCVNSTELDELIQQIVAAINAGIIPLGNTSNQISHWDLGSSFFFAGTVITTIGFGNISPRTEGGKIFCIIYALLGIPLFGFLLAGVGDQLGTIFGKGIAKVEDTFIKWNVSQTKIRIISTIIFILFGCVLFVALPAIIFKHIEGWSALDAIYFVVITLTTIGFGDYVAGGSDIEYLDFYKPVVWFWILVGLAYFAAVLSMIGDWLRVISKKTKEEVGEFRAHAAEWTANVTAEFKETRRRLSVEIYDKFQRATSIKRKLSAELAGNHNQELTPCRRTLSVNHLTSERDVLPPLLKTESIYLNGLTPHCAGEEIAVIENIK

Another experiment deals with T2, TREK-2 (Homo sapiens, UniProt P57789).
T2 construct: gene KCNK10; wild-type human TREK-2 (NP_612190.1)
T2 sequence (P57789 1-538): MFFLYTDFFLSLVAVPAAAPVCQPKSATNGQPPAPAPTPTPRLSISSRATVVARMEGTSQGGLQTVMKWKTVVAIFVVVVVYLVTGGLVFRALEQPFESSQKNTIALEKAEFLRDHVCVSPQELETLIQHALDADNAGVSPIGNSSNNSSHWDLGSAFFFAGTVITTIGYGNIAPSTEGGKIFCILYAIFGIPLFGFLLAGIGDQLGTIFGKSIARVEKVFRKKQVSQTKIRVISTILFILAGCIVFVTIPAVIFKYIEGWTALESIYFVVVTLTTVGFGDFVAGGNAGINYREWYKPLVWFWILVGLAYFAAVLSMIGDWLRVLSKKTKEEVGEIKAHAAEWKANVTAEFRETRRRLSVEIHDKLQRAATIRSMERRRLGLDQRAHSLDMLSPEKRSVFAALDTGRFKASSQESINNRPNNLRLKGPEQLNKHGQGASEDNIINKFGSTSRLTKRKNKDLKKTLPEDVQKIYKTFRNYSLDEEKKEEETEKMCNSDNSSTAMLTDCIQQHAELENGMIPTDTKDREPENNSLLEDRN

A further experiment deals with T3, TRESK (Homo sapiens, UniProt Q7Z418).
T3 construct: gene KCNK18; wild-type human TRESK (NP_862823.1)
T3 sequence (Q7Z418 1-384): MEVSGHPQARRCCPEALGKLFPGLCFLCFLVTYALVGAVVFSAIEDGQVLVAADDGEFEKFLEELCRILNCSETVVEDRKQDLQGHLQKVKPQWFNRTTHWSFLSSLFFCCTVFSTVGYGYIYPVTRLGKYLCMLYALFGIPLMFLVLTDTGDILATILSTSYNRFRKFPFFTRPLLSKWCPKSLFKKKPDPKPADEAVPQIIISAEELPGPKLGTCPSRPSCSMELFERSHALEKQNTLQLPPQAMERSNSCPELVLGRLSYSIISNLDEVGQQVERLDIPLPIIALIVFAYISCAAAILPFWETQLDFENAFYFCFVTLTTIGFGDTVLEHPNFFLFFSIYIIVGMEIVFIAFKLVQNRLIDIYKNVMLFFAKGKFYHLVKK

Experiment [2] deals with T1, TREK-1. The source holds these as a separate data set.

pEC50: −log10 of the molar value.

In turn, `CN1CCN(c2ncc(-c3cc(Cl)cc(Cl)c3Cl)c(N)n2)CC1` [sipatrigine] gave a pEC50 at TREK-1 [1] of 4.80. Further, at TREK-2, at 100 µM the inhibition was 85%.
For `Nc1nnc(-c2cc(C(F)(F)F)cc(C(F)(F)F)c2)c(N)n1` [CEN-092, 3,5-diamino-6-(3,5-bistrifluoromethylphenyl)-1,2,4-triazine], the inhibition at 100 µM against TRESK was 43%; against TREK-1 [2], 21%.
Consider `Nc1nnc(-c2cccc(Cl)c2Cl)c(N)n1` [lamotrigine], for which the inhibition at 100 µM is 35% on TRESK, 14% against TREK-2 and 30% on TREK-1 [2].

A word on the pEC50: it is the EC50 on a negative log10 scale, so that one unit is a factor of ten. By inhibition is commonly meant how much of the control response was suppressed.
